From ChEMBL document CHEMBL3045759, “Synthesis of a New 1, 2, 4-Oxadiazol-5-one Derivative, KC10017, and Its Controlling Activity against Rice Blast Disease Caused by Magnaporthe grisea” (J Pestic Sci, 2002)
Activity calls are given as the source filed them. No cut-off for these calls is given here.

Assays:
Pyricularia grisea [1] = experiment: microbe, parasite or virus in culture; assay type: functional; settings: P-2
Pyricularia grisea [2] = experiment: microbe, parasite or virus in culture; assay type: functional; settings: P-2; remark: listed apart in the source
Pyricularia grisea [3] = experiment: microbe, parasite or virus in culture; assay type: functional; settings: P-2; remark: listed apart in the source
Rhizoctonia solani = experiment: Fungicidal activity against Rhizoctonia solani assessed as control of rice sheath blight disease at 50 ug/ml; assay type: functional, organism-based
Phytophthora infestans = experiment: Fungicidal activity against Phytophthora infestans assessed as control of tomato late blight disease at 50 ug/ml; assay type: functional, organism-based
Puccinia triticina = experiment: Fungicidal activity against Puccinia triticina assessed as control of wheat leaf rust disease at 50 ug/ml; assay type: functional, organism-based
Pyricularia grisea [4] = experiment: Fungicidal activity against Magnaporthe grisea P-2 in rice plant assessed as control of rice blast disease at 0.5 ug/ml at 26 +/- 2 degC measured after 5 days; assay type: functional, organism-based
Pyricularia grisea [5] = experiment: Fungicidal activity against Magnaporthe grisea P-2 in rice plant assessed as control of rice blast disease at 100 ug/ml measured after 14 days of treatment at 26 +/- 2 degC measured afterr 5 days; assay type: functional, organism-based
Pyricularia grisea [6] = experiment: Fungicidal activity against Magnaporthe grisea P-2 in rice plant assessed as control of rice blast disease at 50 ug/ml; assay type: functional, organism-based
Pyricularia grisea [7] = experiment: Inhibition of mycelial growth of Magnaporthe grisea P-2 assessed as mycelial dry weight at 0.1 to 100 ug/ml at 25 degC; assay type: functional, organism-based
[8] = Lipophilicity, log P of the compound; assay type: physicochemical; settings: octanol/water
Blumeria hordei = experiment: Fungicidal activity against Blumeria graminis f. sp. hordei assessed as control of barley powdery mildew at 50 ug/ml; assay type: functional, organism-based
Pyricularia grisea [9] = experiment: microbe, parasite or virus in culture; assay type: functional; settings: P-2; remark: listed apart in the source
Botrytis cinerea = experiment: Fungicidal activity against Botryotinia fuckeliana assessed as control of cucumber gray mold disease at 50 ug/ml; assay type: functional, organism-based

| Structure (SMILES) | inhibition at 10 µg/mL (Pyricularia grisea [1]) [%] | inhibition at 1 µg/mL (Pyricularia grisea [2]) [%] | inhibition at 1 µg/mL (Pyricularia grisea [3]) [%] | Activity (Rhizoctonia solani) | Activity (Phytophthora infestans) | Activity (Puccinia triticina) | Activity (Pyricularia grisea [4]) | Activity (Pyricularia grisea [5]) | Activity (Pyricularia grisea [6]) | inhibition (Pyricularia grisea [7]) | logP [8] | Activity (Blumeria hordei) | inhibition at 10 µg/mL (Pyricularia grisea [9]) [%] | Activity (Botrytis cinerea) |
| --- | --- | --- | --- | --- | --- | --- | --- | --- | --- | --- | --- | --- | --- | --- |
| CCOP(=O)(Sc1ccccc1)Sc1ccccc1 [EDIFENPHOS] | 100 | 44.8 | 76.4 |  |  |  |  |  |  |  |  |  |  |  |
| CN(CC[C@H](N)CC(=O)N[C@H]1C=C[C@H](n2ccc(N)nc2=O)O[C@@H]1C(=O)O)C(=N)N [BLASTICIDIN_S] | 100 | 25.2 | 76.6 |  |  |  |  |  |  |  |  |  |  |  |
| Cc1cccc(NC(=O)Cn2c(COc3c(C)cc(Br)cc3C)noc2=O)c1 | 0 | 0 | 2.9 | inactive | inactive | inactive | Active | Active | Active | inactive | 6.01 | inactive | 0 | inactive |
| Cc1cccc2sc3nncn3c12 [TRICYCLAZOLE] | 7.2 | 0 | 3.8 |  |  |  |  |  |  |  |  |  | 0 |  |
